How the values were obtained:
Format in all cases: cell-based
[1] = system: FOXP3; assay: FOXP3 expression in human Treg / CD4+ T cells treated with SMAD3 inhibitors; conditions: for FOXP3 mRNA expression: purified human Treg cells
Text: p-SMAD3 […]/425 is recognized for its involvement in TGFβ signaling. […] Given the essential role of SMAD3 phosphorylation in nuclear localization and transcriptional activity controlling other genes, the phosphorylation status and its association with IL-37 in human Treg cells was examined (FIG. 24A). Inhibitors of […]/425 sites (SIS3) and […]/[…] sites (flavopiridol) were utilized to determine if they could decrease FOXP3 mRNA expression and disrupt the SMAD3/IL-37 interaction. […] These findings also point to a crucial interplay between p-SMAD3 […] and IL-37 in orchestrating the transcriptional regulation of FOXP3 in human Treg cells.

[2] = system: FOXP3; assay: siRNA knockdown in primary human T cells, FOXP3 and marker expression; conditions: siRNA 48 h prior
Method: Purified primary human CD4+ T cells were used for siRNA knockdown of RUNX1, RPTOR, IL37, CREB1, CHK1, NLRP2, NLRP3, NLRP4, ASC, and NLRC4, and CD4+CD25+CD127^dim T cells for siRNA knockdown of FOXP3 and IL37. Cells were purified from healthy donor PBMCs as described above and then placed in culture in complete RPMI 1640 for at least 2 h prior to siRNA transfection via nucleofection using the Amaxa P3 Primary Cell 4D-Nucleofector X Kit L (Lonza) following the manufacturer's instructions. For the knockdown of RPTOR and IL-37, three different siRNAs (30 nM) against RPTOR and IL-37: A, B, and C (OriGene, Rockville, MD) were used separately or pooled, whereas for FOXP3 knockdown, only the pool of three different siRNAs (30 nM) against FOXP3: A, B, and C (OriGene) was used due to a limited number CD4+CD25+CD127^dim T cells. For the knockdown of NLRP3A, three to four siRNAs were pooled together, and for NLRC4 and NLRP4, Dharmacon SMARTpool was used. Single-sense and anti-sense siRNAs were used for NLRP2 and ASC (Ambion). Scrambled siRNA (OriGene, Ambion, and Dharmacon) was used as a control. Knockdowns were confirmed 24 hours after nucleofection by qRT-PCR or 48 hours later by western blot, and the relative density of the protein bands was determined using FIJI. […]

[3] = system: human Treg cells; assay: CD25+FOXP3+ frequency in human Treg cells cultured with IL-6; conditions: anti-TCR/CD28, IL-6 20 ng/ml
Method: Purified lymphocytes from either humans or mice were washed with FACS buffer (5% BSA (Sigma-Aldrich) and 1×PBS), and then prepared for surface or intracellular staining, as described (Osborne and Wetzel, 2012). For surface staining, 1 μg or the manufacturer-recommended amounts of fluorescently conjugated antibody specific to the surface marker to be visualized was added to 1×10^6 cells resuspended in 100 μl of FACS buffer for 30 min at 4° C., then washed 2× with FACS buffer prior to being either analyzed or further processed. For intracellular cytokine staining (ICS), the FOXP3 Cytoperm/Cytofix staining kit (BD Pharmingen, San Diego, CA) was used after cells were stimulated for 24 h on 1 μg/ml anti-CD3-coated plates with soluble 1 μg/ml anti-CD28 antibody or anti-CD3/CD28 conjugated Dynabeads™ (Gibco, Thermo Fisher). For measuring proliferation, cells were stained with 5-μM CFSE (Molecular Probes, Eugene, OR) prior to cell culture and analyzed using flow cytometry. Flow-based measurement of caspase-1 activation was done using the FAM-FLICA® Caspase-1 Assay kit #98 following the manufacturer's instructions (ImmunoChemistry Tech, Bloomington, MN). […] All acquisitions were performed on a Galios® or Galios® 561 cytometer equipped with Kaluza software (Beckman-Coulter, Indianapolis, IN), and all data were analyzed with FlowJo_V10 software (Tree Star, Ashland, OR).

[4] = system: caspase-1; assay: Caspase-1 inhibition in human Treg / CD4+ T cells; conditions: 50 μM
Method: For proximity ligation assay (PLA) experiments, after primary antibodies were washed out, cells were incubated for 1 h at 37° C. with an anti-rabbit PLUS probe (1:5 dilution; Duo92002; Sigma-Aldrich) anti-mouse MINUS probe (1:5 dilution; Duo92004; Sigma-Aldrich) and were washed two times with wash buffer A. Probes were then ligated for 30 min at 37° C. and washed two times in Buffer A and were amplified for 100 min at 37° C. in the dark with polymerase (Sigma-Aldrich). For flow-based PLA (Sigma-Aldrich), after amplification, cells were treated with 1× green detection buffer for 30 min at 37° C., then washed 2× with PLA wash buffer and prepared for flow analysis. After 2 washes with 1× Buffer B (Thermo Fisher), each well was added with ProLong™ Gold antifade reagent (Thermo Fisher) containing DAPI nuclear stain. Images were obtained with an Olympus FV1000 FCS/RICS system (Olympus, Tokyo, Japan). For analysis, 7 different 100×/1.4 Oil Plan-Apochromatic objective fields of view were imaged per well per experiment. Each field was measured for IL-37 fluorescence intensity using the FIJI measurement application. To analyze the cytoplasmic vs. nuclear localization of IL-37 within the T cells, DAPI and IL-37 overlapped images was used. Along with single-slice full field images, […] slice z-stack images were taken to confirm cytoplasmic vs. nuclear localization of IL-37. Colocalization of IL-37 and DAPI was assessed by Pearson's correlation coefficient using FIJI. Line intensity profiles were created using a Plot profile in FIJI to measure differences in fluorescence across a cell by drawing a line spanning the diameter of the cell, and then the staining intensity measurements across the line were then entered into Prism 8 (GraphPad, Lo Jolla, CA). 3D fluorescent maps were created using a Surface plot in FIJI.
Purified lymphocytes from either humans or mice were washed with FACS buffer (5% BSA (Sigma-Aldrich) and 1×PBS), and then prepared for surface or intracellular staining, as described (Osborne and Wetzel, 2012). For surface staining, 1 μg or the manufacturer-recommended amounts of fluorescently conjugated antibody specific to the surface marker to be visualized was added to 1×10^6 cells resuspended in 100 μl of FACS buffer for 30 min at 4° C., then washed 2× with FACS buffer prior to being either analyzed or further processed. […] For measuring proliferation, cells were stained with 5-μM CFSE (Molecular Probes, Eugene, OR) prior to cell culture and analyzed using flow cytometry. […]

[5] = system: p-SMAD3 S208; assay: Immunoblotting of cytoplasmic and nuclear proteins of human Treg cells after flavopiridol; conditions: immunoblot
Method: For immunoblot analysis, cells were lysed in RIPA buffer (50 mM Tris-HCL pH 7.4, 150 mM NaCl, 1 mM PMSF, 1 mM EDTA, 5 μg/ml Aprotinin, […] Leupeptin, 1% Triton x-100, 1% Sodium deoxycholate, 0.1% SDS) (Sigma-Aldrich). For IP of Smad3, cells were lysed in Pierce® IP Lysis Buffer (Thermo) and prepared using the Thermo Immunoprecipitation containing Dynabeads™ Protein G kit according to the manufacturer's instructions. The Smad3 IP was performed using the rabbit monoclonal antibody against Smad3 (C67H9) (Thermo). Hsp90 IP using mouse monoclonal antibody against Hsp90 (610418) (BD Biosciences). 20 μg of sample was run on a 4-15% Mini-Protean TGX precast gel (Bio-Rad) and then transferred overnight at 4° C. and 30 V to a PVDF membrane using a Bio-Rad Trans-Blot® transfer cell. Following 1 h of blocking with blocking buffer (5% milk/Tween 20 in TBS), membranes were incubated with primary antibody overnight at 4° C. For siRNA knockdown blots, mouse β-actin monoclonal antibody (Sigma-Aldrich) at a dilution of 1:10,000 was used for the loading control. For Smad3 IP, rabbit anti-human IL-37 (IL-1F7) polyclonal antibody (Invitrogen, Thermo) at a dilution of 1:1000 was used to detect IL37. HRP-conjugated anti-rabbit (1:5000) and anti-mouse IgG (1:5000) were purchased from Sigma-Aldrich. The SuperSignal West Pico Kit (Thermo Fisher) was used according to the manufacturer's instructions for the chemiluminescent detection of the proteins. Protein expression was further analyzed by measuring the relative densities using FIJI (National Institutes of Health: http://rsb.info.nih.gov/ij/) or LI-COR Image Studio™ Software.
Therefore, cytoplasmic and nuclear proteins of primary human Treg cells was scrutinized following flavopiridol treatment to ascertain if p-SMAD3 S208 is essential for the nuclear localization of SMAD3 and IL-37.

COc1cc2c(cc1OC)CN(C(=O)/C=C/c1c(-c3ccccc3)n(C)c3ncccc13)CC2 [SIS3]
FOXP3 protein expression ([1]; primary human CD4+ T cells): did not significantly decrease | FOXP3 mRNA expression [1]: did not significantly alter

RUNX1: siRNA against RUNX1 (Ambion), SEQ ID NO: 34-35 (chain 1 AGAACCAGGUUGCAAGAUU; chain 2 AAUCUUGCAACCUGGUUCU; listed as RNA, chemistry not given here)
frequency of FOXP3+ T cells in CD4+ T cells after knockdown [2]: significant decline

IL-6: IL-6 (Peprotech), 20 ng/ml, added as inflammatory stimulus to Treg cultures
decrease in frequency of CD25+FOXP3+ cells ([3]; gated IL37hi human Treg cells): no such reduction | decrease in frequency of CD25+FOXP3+ cells ([3]; gated IL-37lo human Treg cells): 34%

Ac-YVAD-CMK
FOXP3 mRNA and protein expression ([4]; human CD4+ T cells): reduction | decrease of interaction between IL-37 and p-SMAD3 S208 ([4]; human Treg cells): 36.5% | IL-37 subcellular localization ([4]; human Treg cells, 24 h): shift of IL-37 localization from the nucleus to the perinuclear region of the cytoplasm | IL-37 expression ([4]; human Treg cells, 48 h): without alteration

CN1CC[C@H](c2c(O)cc(O)c3c(=O)cc(-c4ccccc4Cl)oc23)[C@H](O)C1 [flavopiridol]
expression of IL-37 in the nucleus [5]: abolished | nuclear SMAD3 levels [5]: lowered | nuclear levels of FOXP3 [5]: reduced | p-SMAD3 S208 [5]: diminished | FOXP3 protein expression, fold decrease compared to control cells ([1]; primary human CD4+ T cells, not rescued by TGF-β): ~2 fold | FOXP3 mRNA expression [1]: almost completely obliterated

CREB1: siRNA against CREB1 (Ambion), SEQ ID NO: 8-9 (chain 1 CCGUAACUCUAGUACAGCU; chain 2 AGCUGUACUAGAGUUACGG; listed as RNA, chemistry not given here)
frequency of FOXP3+ T cells in CD4+ T cells after knockdown [2]: significant decline
